We go through 1 compound from patent US20160213651A1, “PIDOTIMOD FOR USE IN THE TREATMENT OF INFLAMMATION-ASSOCIATED DISEASES” (POLICHEM S.A., priority 2013, published 2016).

In test [1] the test system is NLRP12. As to the kind of experiment: NLRP12 mRNA expression in primary monocytes from peripheral blood of healthy donors. The test is classed as cell-based, human. Conditions: primary monocytes from 8 different subjects, 25 and 5 μg/ml (FIG. 2). The method, then: (§1) 1. Culture of human monocytes. Peripheral blood mononuclear cells (PBMCs) were obtained by peripheral blood (freshly drawn or buffy coats). Monocytes were then derived from PBMCs by positive selection using anti-CD14 paramagnetic beads (Miltenyi Biotec) as described (Marini et al., 2008). Upon purification, cells were shortly cultured (from 24 to 72 hours) in complete culture medium (RPMI 1640 complemented with 10% of fetal bovine serum certified low endotoxin).
(§2) 2. Cell treatment with Pidotimod. PBMCs, purified primary human monocytes or MonoMac 6were treated with Pidotimod, at concentrations ranging from 1 to 25 μg/mL and, for different times. In some experiments, after 6 to 48 hours from the beginning of Pidotimod treatment, cells were washed and cultured for 6-24 hours in the presence and absence of TLR 1-9 optimal ligands (Human TLR1-9 Agonist kit, Invivogen).
(§3) 3. Evaluation of gene expression involved in Pidotimod activity. Upon stimulation, cells were harvested and total RNA was extracted using the RNAeasy mini kit (Qiagen). RNA was then retro-transcribed and subjected to amplification. Real-time PCR was performed using the “Human “RT2 Profiler PCR microarray kit” according to the manufacturer's protocol (SABbiosciences, Qiagen). […]
(§4) 5. […] Data obtained were analysed using the 2^−ΔΔCt method using Relative Quantification Study software (Applied Biosystems). […]

The subject of another test is primary human monocytes. Nature of the test: mRNA of inflammatory mediators in primary human monocytes treated with TLR agonists. Format: cell-based. The method, then:
as §1, §2
5. Transcription array. The Pidotimod ability to reduce the inflammation induced by potent danger signals as LPS or other PAMPs was highlighted by evaluating the level of mRNA specific for effector inflammatory molecules. To this scope total RNA was extracted using the semiautomated extraction system NucliSens Easymag (Biomerieux). […] Data obtained were analysed using the 2^−ΔΔCt method using Relative Quantification Study software (Applied Biosystems). […]

Test [2] deals with NLRP12. As to the kind of experiment: NLRP12 downregulation induced in monocytes by TLR stimulation, Pidotimod pretreatment. The test is classed as cell-based, human. The conditions noted are these: monocytes pretreated with Pidotimod. How it is done:
as §1, §2
(§5) 4. Immunoblot and immunoprecipitation assays. Cell lysates were prepared in lysis buffer containing a protease inhibitor cocktail (Roche). […] To detect the presence of cytoplasmic NLRP12, a first incubation with the goat polyclonal antibody to NLRP12 (Santa Cruz Biotechnology) was followed by the addiction of donkey-anti-goat-HRP secondary antibody. […]
as §4

Test [3] has as its system NLRP12. Nature of the test: NLRP12 mRNA expression in MonoMac 6 cells (transcriptional array, quantitative Real-Time PCR). Format: cell-based, human. How it is done: as §1, §2, §3, §4
On the technique in general: In qPCR the cycle at which signal appears reflects the starting amount.

Test [4] concerns PBMCs and/or purified monocytes. Nature of the test: ELISA quantification of inflammatory molecules in cell supernatants after TLR stimulation. The test is classed as cell-based, human. The method, then: as §1, §2
6. ELISA for the quantification of proinflammatory molecules induced by TLR stimulation. The increase of cytokine synthesis is the signal of cellular response to TLR stimulation. Pidotimod disciplines the extent of inflammation by upregulating the expression of NLRP12 which reduces the amplification of inflammatory signals triggered by TLR activation. […] The presence of IL-6, IL-8, TNF-α, MCP-1 and IL-1β was quantified in the cultural medium through ELISA assays (Endogen).

The test system of test [5] is NLRP12. Nature of the test: NLRP12 protein expression in Monomac6 by immunoprecipitation and immunoblotting. Format: cell-based, human. Conditions: Monomac6, 5 μg/ml, 36 hours, immunoblotting upon immunoprecipitation (FIG. 3). The method, then:
as §1, §2, §5

Molecules are shown by their SMILES. Square brackets hold non-standard residues; d marks the D form. Peptide text beside a SMILES is read from it. pGlu = O=C1CC[C@@H](C(=O)O)N1; Thz = O=C(O)[C@@H]1CSCN1

Consider `O=C1CC[C@@H](C(=O)N2CSC[C@H]2C(=O)O)N1` [Pidotimod, (4R)-3-(5-oxo-L-prolyl)-1,3-thiazolidine-4-carboxylic acid] ([pGlu]-[Thz]-OH), for which, in the test on NLRP12 [1], the “NLRP12 mRNA expression vs non-treated cells” value is reported as “increase of NLRP12 mRNA expression”. Besides, the “IL-6, IL-8, TNF-α and IL-1β mRNA induced by TLR agonists” value in the test on primary human monocytes is recorded as “controls the production of these mediators at the transcriptional level”. Besides, the “levels of specific MCP-1 (mRNA) induced by TLR agonists” value in the test with primary human monocytes (8 samples from 8 donors (FIG. 4)) was “consistently diminished”. For the same compound, the “NLRP12 expression at messenger level after TLR stimulation” value in the test with NLRP12 [2] (representative TLR with optimal agonist (FIG. 5 left panel)) was “able to counteract the decrement of NLRP12 expression”. Besides, the “NLRP12 expression at protein level after TLR stimulation” value in the test with NLRP12 [2] (representative TLR with optimal agonist (FIG. 5 right panel)) is given as “able to counteract the decrement of NLRP12 expression”. In the test on NLRP12 [3] (25 μg/ml, 16 hours of treatment, gene array confirmed by Real-Time PCR), the “NLRP12 mRNA increase as compared to unstimulated cells” value is “two-fold”. For the same compound, in the test on NLRP12 [3] (25 and 5 μg/ml, tested 6, 16, 24, 48 hours (FIG. 1)), the “time of peak of increase in NLRP12 expression” value is 24 h. For the same compound, the “inflammatory molecules in cell supernatants by ELISA” value in test [4] (purified monocytes, TLR stimulation) is given as “confirmed”. Further, the “inflammatory molecules by ELISA in total PBMC” value in test [4] (total PBMC instead of purified monocytes) was “reproducible”. In the test with NLRP12 [5], the “NLRP12 protein expression level vs untreated cells” value is on record as “higher amount of NLRP12 protein”.
